Source: patent US20030198692A1, “Microbial inhibitory compositions” (priority 2000, published 2003)

Columns and labels:
Type in all cases: cell-based
Candida albicans = test: Growth of Candida albicans in the presence of furanone 57 with or without EDTA
Experimental: The yeast, Candida albicans, was tested in the presence of furanone 57 at 250 ng/ml. […] In combination with 0.01% EDTA the growth of the cells was inhibited for at least 32 hrs.

Pseudomonas aeruginosa = test: Growth of Pseudomonas aeruginosa in the presence of furanones, alone or with a cell-permeabilising agent; conditions: for prevention of growth of P. aeruginosa (ranking): furanone 10 μg/ml with EDTA 0.02%
Experimental: Ten furanones (compounds 2, 3, 19, 30, 45, 55, 56, 24/25, 26/27 and 33/34) (see Table 2) were tested against growth of Gram negative bacteria in a combination treatment using a cell permeabilising agent (Polymyxin B and EDTA).
Different furanone compounds under test were applied at 10 μg/ml (concentration of stock solution of furanone compound or mixture of compounds was 2 mg/ml) and polymyxin B was employed at concentrations which ranged from 0.3-1 μg/ml (stock solution was 10 mg/ml).
In addition, EDTA which also affects the permeability of the cell membrane was tested against growth of P. aeruginosa in combination with the different furanones. EDTA was added at a concentration of 0.02%. […] It is possible that they differently allow for different furanones to penetrate the cell membrane.
Growth of Pseudomonas aeruginosa in the presence of citric acid, toluene, Tween 80 and two different quaternary ammonium compounds was further investigated. The tested furanones was furanone 30 and 34 at 10 μg/ml (concentration of stock solution of furanone compound was 10 mg/ml). The used cell-permeability agents were employed at concentrations which ranged from 0.35-0.001%.

Escherichia coli = test: Growth of Escherichia coli in the presence of polymyxin B and furanones; conditions: furanone 10 μg/ml with polymyxin B 0.3-1 μg/ml
Experimental: Growth of Gram negative bacteria is not generally affected by furanone compounds alone. […] In order to explore this concept, the antibiotic polymyxin B was included in the initial round of experiments (see FIGS. 2, 3 and 4) involving the bacteria Escherichia coli, Burkholdera cepacia and Pseudomonas aeruginosa. […] Different furanone compounds under test were applied at 10 μg/ml (concentration of stock solution of furanone compound or mixture of compounds was 2 mg/ml) and polymyxin B was employed at concentrations which ranged from 0.3-1 μg/ml (stock solution was 10 mg/ml).

Corynebacterium jeikeium = test: Growth of Corynebacterium jeikeium in the presence of furanone 2 and EDTA; conditions: compound 100 μg/ml in combination with EDTA 0.02%
Experimental: Moreover, the growth of the Gram-positive bacteria, Corynebacterium jeikeium, was inhibited by compound 2 (100 μg/ml) in combination with EDTA (0.02%). The lagphase of growth was prolonged for 20 hr.

[1] = furanone 10 μg/ml in combination with citric acid

CCCCCC(F)C1=C(Br)/C(=C/Br)OC1=O (centres unmarked) [Compound 57]
duration of inhibition of growth of C. albicans cells (Candida albicans; compound 250 ng/ml alone): 24 h
duration of inhibition of growth of C. albicans cells (Candida albicans; compound 250 ng/ml in combination with 0.01% EDTA): at least 32 hrs

O=C1C=C(Br)/C(=C/Br)O1 [Compound 30]
prolongation of lag phase of growth of P. aeruginosa (in words) (Pseudomonas aeruginosa; [1]): also prolonged the lag phase of growth however not as strongly as compound 34
prevention of growth of P. aeruginosa (ranking) (Pseudomonas aeruginosa): most effective compounds in preventing growth
growth of P. aeruginosa (Pseudomonas aeruginosa; furanone 10 μg/ml with Tween 80): slight growth inhibition
growth of P. aeruginosa (Pseudomonas aeruginosa; furanone 10 μg/ml with didecyldimethylammonium bromide): inhibited the growth of P. aeruginosa
activity against P. aeruginosa (ranking) (Pseudomonas aeruginosa; furanone 10 μg/ml with polymyxin B 0.3-1 μg/ml): most active compound
growth of P. aeruginosa (Pseudomonas aeruginosa; furanone 10 μg/ml with tetrabutylammoniumhydrogen sulfate (slightly more active of the two quaternary ammonium compounds)): inhibited the growth of P. aeruginosa

O=C1C=C/C(=C/Br)O1 [Compound 56]
prevention of growth of P. aeruginosa (ranking) (Pseudomonas aeruginosa): most effective compounds in preventing growth

CCCC(F)C1=C(Br)/C(=C/Br)OC1=O (centres unmarked) [Compound 45]
time period of inhibition of growth of E. coli (Escherichia coli): 8 h

CCCCCC(Br)C1=CC(=C(Br)Br)OC1=O (centres unmarked) [Compound 34]
prolongation of lag phase of growth of P. aeruginosa (Pseudomonas aeruginosa; [1]): approximately 3 hours

CCCCC1=C(Br)C(=C(Br)Br)OC1=O [Compound 2]
time period of inhibition of growth of E. coli (Escherichia coli): 8 h
growth of Corynebacterium jeikeium (Corynebacterium jeikeium): inhibited
prolongation of lag phase of growth of Corynebacterium jeikeium (Corynebacterium jeikeium): 20 h
